In the supplement of paper PMC10307832:

How the values were obtained:
Assay in all cases: relative viability (nuclei count vs DMSO), 5 days (fraction); higher = more cells survive
[1] = compound: C[As](C)SC[C@H](NC(=O)CC[C@H](N)C(=O)O)C(=O)NCC(=O)O [Darinaparsin] + Nc1nc2[nH]cc(CCc3ccc(C(=O)N[C@@H](CCC(=O)O)C(=O)O)cc3)c2c(=O)[nH]1 [Pemetrexed] (partner 0.2 µM)
In short: (§1)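 After 5 days of treatment, lung cancer cells in 1536-well plates were fixed and stained in a single step (final 0.05% Triton X-100, 1% formaldehyde, 1 ug/ml Hoechst) and their nuclei counted on 4× images. Treatment had been applied by pin tool the day after seeding as one drug alone or as a fixed anchor-drug dose with five library-drug doses (not always all listed) in √10 steps. Relative viability is the nuclei count of treated wells divided by that of vehicle wells, and values are medians of duplicate plates.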

[2] = compound: CC1=C(C=C(C=C1)NC(=O)C2=CC(=CC=C2)C(C)(C)C#N)NC3=CC4=C(C=C3)N=CN(C4=O)C [AZ628] + CS(=O)(=O)N1CCN(Cc2cc3nc(-c4cccc5[nH]ncc45)nc(N4CCOCC4)c3s2)CC1 [Pictilisib] (partner 1 µM)
In short: as §1

[3] = compound: CC1=C(C=C(C=C1)NC(=O)C2=CC(=CC=C2)C(C)(C)C#N)NC3=CC4=C(C=C3)N=CN(C4=O)C [AZ628] + C[C@]1(O)C[C@@H](c2nc(-c3ccc4ccc(-c5ccccc5)nc4c3)c3c(N)nccn32)C1 [Linsitinib] (partner 1 µM)
In short: as §1

[4] = compound: C[As](C)SC[C@H](NC(=O)CC[C@H](N)C(=O)O)C(=O)NCC(=O)O [Darinaparsin] + CC(=O)c1c(C)c2cnc(Nc3ccc(N4CCNCC4)cn3)nc2n(C2CCCC2)c1=O [Palbociclib] (partner 0.5 µM)
In short: as §1

Cell Line	relative viability ([1]; first compound 0.08 µM)	relative viability ([1]; first compound 0.8 µM)	relative viability ([1]; first compound 2.53 µM)	relative viability ([1]; first compound 8 µM)	relative viability ([2]; first compound 0.08 µM)	relative viability ([2]; first compound 0.253 µM)	relative viability ([2]; first compound 0.8 µM)	relative viability ([2]; first compound 2.53 µM)	relative viability ([2]; first compound 8 µM)	relative viability ([3]; first compound 0.08 µM)	relative viability ([3]; first compound 0.253 µM)	relative viability ([3]; first compound 0.8 µM)	relative viability ([3]; first compound 2.53 µM)	relative viability ([3]; first compound 8 µM)	relative viability ([4]; first compound 0.08 µM)	relative viability ([4]; first compound 0.8 µM)	relative viability ([4]; first compound 2.53 µM)	relative viability ([4]; first compound 8 µM)
NCI-H1395	0.944	0.719	0.795	0.792	0.645	0.621	0.618	0.629	0.662	1.21	1.18	1.23	1.07	1.05	0.617	0.54	0.54	0.646
CAL-12T	1.65	1.08	1.17	1.38	0.393		0.416	0.298	0.505	0.788	0.677	0.585	0.679	0.357	0.446	0.387	0.408	0.478
COR-L 105	1.39	1.21	0.913	1.27	0.466	0.418	0.384	0.353	0.334	0.933	0.897	0.934	0.857	0.651	0.456	0.373	0.397	0.382
BEN	0.873	0.848	0.818	0.859	0.621	0.523	0.487	0.49	0.458	1.1	0.864	0.793	0.903	0.772	0.492	0.445	0.488	0.43
NCI-H520	0.639	0.613	0.68	0.76	0.312	0.313	0.273	0.212	0.204	1.08	1.03	0.872	1.01	0.62	0.149	0.208	0.216	0.248
NCI-H2405	1.24	0.872	1.07	1.14	0.222	0.249	0.256	0.255	0.257	0.463	0.646	0.477	0.387	0.409	0.532	0.492	0.473	0.606
NCI-H2087	0.656	0.671	0.667	0.616	0.617	0.35	0.325	0.341	0.291	0.818	0.613	0.728	0.65	0.343	0.225	0.215	0.169	0.204
NCI-H460	0.0581	0.0587	0.0655	0.0643	0.323	0.25	0.254	0.269	0.127	0.74	0.694	0.658	0.523	0.154	0.147	0.176	0.117	0.181
LCLC-103H	0.466	0.422	0.448	0.422	0.554	0.587	0.632	0.55	0.583	1.02	1.15	1.15	1.07	1.04	0.49	0.427	0.49	0.533
NCI-H441	0.264	0.239	0.279	0.246	0.417	0.45	0.444	0.403	0.283	0.64	0.494	0.549	0.425	0.396	0.264	0.214	0.21	0.188
